We go through 20 compounds from US20220388992A1, “JAK INHIBITOR COMPOUND AND USE THEREOF” (priority 2019, published 2022).

SMILES strings stand for the structures.

Holding throughout (type): biochemical
The target in one experiment is T1, TYK2 (Homo sapiens, UniProt P29597).
T1 sequence (P29597 871-1187 limits assumed): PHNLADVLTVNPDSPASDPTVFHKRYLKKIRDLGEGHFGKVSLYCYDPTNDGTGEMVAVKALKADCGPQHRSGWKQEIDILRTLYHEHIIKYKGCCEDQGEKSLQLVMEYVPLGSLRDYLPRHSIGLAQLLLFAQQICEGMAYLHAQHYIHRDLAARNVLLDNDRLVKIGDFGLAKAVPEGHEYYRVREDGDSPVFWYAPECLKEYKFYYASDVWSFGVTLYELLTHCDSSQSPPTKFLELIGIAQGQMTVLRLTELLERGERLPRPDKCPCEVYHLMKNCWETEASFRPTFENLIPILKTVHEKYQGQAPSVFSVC
Nature of the experiment: TYK2 kinase inhibition, ADP-Glo luminescence assay. The note with it: substrate IRS1. The source says: (§1) A drug screening system based on kinases JAK1, JAK2, JAK3, and TYK2 was used to detect the inhibitory ability of small molecule compounds on kinase activity. A kinase undergoes an enzymatic reaction with its substrates IRS 1, IGF1Rtide, and Poly (4:1 Glu, Tyr), consuming ATP to produce ADP, wherein the ADP-Glo reagent and luminescence method were used to detect the amount of the product to reflect the activity of the kinase. 2.1 Experimental Materials and Instruments
(§2) a) Dilute a compound solution to be tested by 5 times with 100% DMSO. […] The final concentration of DMSO is 0.5%. d) Transfer 4 μL of ADP-Glo to the 384-well reaction plate, centrifuge it at 1000 rpm/min for 1 min, and incubate it at 25° C. for 40 min. e) Transfer 8 μL of Detection solution to the 384-well reaction plate, centrifuge it at 1000 rpm/min for 1 min, and incubate it at 25° C. for 40 min. f) Use Biotek multi-function plate reader to read the RLU (Relative luminescence unit) signal. The signal intensity is used to characterize the degree of kinase activity.
(§3) IC50 (half inhibitory concentration) of the compound can be obtained using the following nonlinear fitting formula:
(§4) Y=Bottom+(Top−Bottom)/(1+10^((Log IC50−X)*HillSlope))

A further experiment has as its target JAK1 (Homo sapiens, UniProt P23458). Nature of the experiment: JAK1 kinase inhibition, ADP-Glo luminescence assay. Further details: purchased Carna 08-144. The following applies: substrate IRS1.
Text: as §1, §2, §3, §4
For orientation: In ADP-Glo the light output rises with the ADP produced.

A further experiment deals with T2, JAK3 (Homo sapiens, UniProt P52333).
T2 construct: purchased Carna 08-046
Nature of the experiment: JAK3 kinase inhibition, ADP-Glo luminescence assay. The note with it: substrate Poly (4:1 Glu, Tyr).
Text: as §1, §2, §3, §4

A further experiment addresses JAK2 (Homo sapiens, UniProt O60674). Nature of the experiment: JAK2 kinase inhibition, ADP-Glo luminescence assay. Details: purchased Carna 08-045. The following applies: substrate IGF1Rtide.
Text: as §1, §2, §3, §4

JAK1, sequence (P23458 850-1154 limits assumed): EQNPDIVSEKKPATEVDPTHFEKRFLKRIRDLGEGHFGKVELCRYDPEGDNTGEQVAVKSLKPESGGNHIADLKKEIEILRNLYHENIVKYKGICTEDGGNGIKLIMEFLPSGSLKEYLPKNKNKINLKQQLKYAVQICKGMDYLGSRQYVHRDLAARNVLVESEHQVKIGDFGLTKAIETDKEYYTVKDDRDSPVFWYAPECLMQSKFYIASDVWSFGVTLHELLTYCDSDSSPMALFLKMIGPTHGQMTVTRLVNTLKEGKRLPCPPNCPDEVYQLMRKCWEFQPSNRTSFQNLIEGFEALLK
JAK2, sequence (O60674 826-1132 limits assumed): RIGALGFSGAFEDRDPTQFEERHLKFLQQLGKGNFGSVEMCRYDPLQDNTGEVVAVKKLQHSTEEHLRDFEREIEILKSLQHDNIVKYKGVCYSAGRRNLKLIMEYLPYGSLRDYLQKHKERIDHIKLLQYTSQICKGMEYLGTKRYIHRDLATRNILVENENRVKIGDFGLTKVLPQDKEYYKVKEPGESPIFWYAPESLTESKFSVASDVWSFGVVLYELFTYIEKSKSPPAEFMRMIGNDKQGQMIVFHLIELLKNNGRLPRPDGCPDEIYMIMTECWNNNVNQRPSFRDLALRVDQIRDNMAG
T2 sequence (P52333 795-1124 limits assumed): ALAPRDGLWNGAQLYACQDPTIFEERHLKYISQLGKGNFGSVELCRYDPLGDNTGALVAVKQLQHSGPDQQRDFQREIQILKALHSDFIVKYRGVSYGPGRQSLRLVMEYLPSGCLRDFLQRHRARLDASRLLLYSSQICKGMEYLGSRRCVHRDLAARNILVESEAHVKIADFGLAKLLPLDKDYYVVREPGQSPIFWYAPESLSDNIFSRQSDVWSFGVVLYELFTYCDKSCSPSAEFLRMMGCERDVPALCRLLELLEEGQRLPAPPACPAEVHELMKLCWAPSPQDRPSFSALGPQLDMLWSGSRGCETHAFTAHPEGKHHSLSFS

Regarding `CCc1cc(O)c(F)cc1-c1ccc2c(-c3nc(CN4CCC(O)CC4)c[nH]3)n[nH]c2c1` [Ex-9, 1-((2-(6-(2-ethyl-5-fluoro-4-hydroxyphenyl)-1H-indazol-3-yl)-1H-imidazol-4-yl)methyl)piperidin-4-ol], the IC50 (in general, the concentration at which inhibition is half-maximal) on TYK2 is 19.8 nM; at JAK1 it was 1.3 nM; against JAK3, 1.3 nM; at JAK2, 1.5 nM.

With `CCc1cc(O)c(F)cc1-c1ccc2c(-c3nc(CN(C)C(=O)C4CC4)c[nH]3)n[nH]c2c1` [Ex-10, N-((2-(6-(2-ethyl-5-fluoro-4-hydroxyphenyl)-1H-indazol-3-yl)-1H-imidazol-4-yl)methyl)-N-methylcyclopropanecarboxamide], the IC50 against TYK2 was 27 nM; against JAK1 it was 1.2 nM; against JAK3, 4.5 nM; against JAK2, 5.2 nM.

Take `CCc1cc(O)c(F)cc1-c1ccc2c(-c3nc(CN4CCC(C#N)CC4)c[nH]3)n[nH]c2c1` [Ex-11, 1-((2-(6-(2-ethyl-5-fluoro-4-hydroxyphenyl)-1H-indazol-3-yl)-1H-imidazol-4-yl)methyl)piperidine-4-nitrile]: the IC50 at TYK2 is 18.4 nM; on JAK1, 0.31 nM; at JAK3, 2.5 nM; at JAK2, 0.85 nM.

On to `CCc1cc(O)c(F)cc1-c1ccc2c(-c3nc(CN4CCC(C#N)C4)c[nH]3)n[nH]c2c1` (centres unmarked) [Ex-12, 1-((2-(6-(2-ethyl-5-fluoro-4-hydroxyphenyl)-1H-indazol-3-yl)-1H-imidazol-4-yl)methyl)pyrrolidine-3-carbonitrile], for which the half-maximal inhibitory concentration (IC50) against TYK2 worked out at 6.1 nM; at JAK1, 0.1 nM; on JAK3, 0.67 nM; against JAK2 it was 0.74 nM.

As to `CCc1cc(O)c(F)cc1-c1ccc2c(-c3nc(CN4CCOCC4)c[nH]3)n[nH]c2c1` [Ex-13, 5-ethyl-2-fluoro-4-(3-(4-(morpholinomethyl)-1H-imidazol-2-yl)-1H-indazol-6-yl)phenol], the IC50 against TYK2 amounted to 11.3 nM; at JAK1, 0.48 nM; on JAK3 it was 1.7 nM; against JAK2, 0.84 nM.

With `CCc1cc(O)c(F)cc1-c1ccc2c(-c3nc(CNc4cccnc4)c[nH]3)n[nH]c2c1` [Ex-14, 5-ethyl-2-fluoro-4-(3-(4-((pyridin-3-ylamino)methyl)-1H-imidazol-2-yl)-1H-indazol-6-yl)phenol], the IC50 on TYK2 is 9.6 nM; against JAK1, 0.47 nM; at JAK3, 1.6 nM; on JAK2, 1.2 nM.

`CCc1cc(O)c(F)cc1-c1ccc2c(-c3nc(CNc4cnn(C)c4)c[nH]3)n[nH]c2c1` [Ex-15, 5-ethyl-2-fluoro-4-(3-(4-(((1-methyl-1H-pyrazol-4-yl)amino)methyl)-1H-imidazol-2-yl)-1H-indazol-6-yl)phenol]: the IC50 came out at 4.9 nM at TYK2, 0.29 nM against JAK1, 0.76 nM against JAK3 and 0.78 nM on JAK2.

Regarding `CCc1cc(O)c(F)cc1-c1ccc2c(-c3nc(CNC(=O)N(C)CCO)c[nH]3)n[nH]c2c1` [Ex-16, 3-((2-(6-(2-ethyl-5-fluoro-4-hydroxyphenyl)-1H-indazol-3-yl)-1H-imidazol-4-yl)methyl)-1-(2-hydroxyethyl)-1-methylurea], the IC50 on TYK2 worked out at 0.97 nM; against JAK1 it was 0.16 nM; against JAK3, 0.43 nM; against JAK2, 0.5 nM.

In the case of `CCc1cc(O)c(F)cc1-c1ccc2c(-c3nc(CNCC4CC4)c[nH]3)n[nH]c2c1` [Ex-17, 4-(3-(4-(((cyclopropylmethyl)amino)methyl)-1H-imidazol-2-yl)-1H-indazol-6-yl)-5-ethyl-2-fluoro phenol], the IC50 stood at 6.5 nM against TYK2, 0.36 nM at JAK1, 2.9 nM on JAK3 and 1.2 nM against JAK2.

For `CCc1cc(O)c(F)cc1-c1ccc2c(-c3nc(CNS(=O)(=O)C4CC4)c[nH]3)n[nH]c2c1` [Ex-18, N-((2-(6-(2-ethyl-5-fluoro-4-hydroxyphenyl)-1H-indazol-3-yl)-1H-imidazol-4-yl)methyl)cyclopropanesulfonamide], the IC50 against TYK2 worked out at 3.7 nM; on JAK1, 0.15 nM; on JAK3, 1.1 nM; on JAK2, 1.4 nM.

Consider `CCc1cc(O)c(F)cc1-c1ccc2c(-c3nc(CNS(=O)(=O)CC)c[nH]3)n[nH]c2c1` [Ex-19, N-((2-(6-(2-ethyl-5-fluoro-4-hydroxyphenyl)-1H-indazol-3-yl)-1H-imidazol-4-yl)methyl)ethanesulfonamide], for which the IC50 on TYK2 is 6.4 nM; at JAK1 it was 0.33 nM; against JAK3, 2.3 nM; on JAK2, 3.3 nM.

On to `CCc1cc(O)c(F)cc1-c1ccc2c(-c3nc(CNC(=O)N4CCC(O)CC4)c[nH]3)n[nH]c2c1` [Ex-20, N-((2-(6-(2-ethyl-5-fluoro-4-hydroxyphenyl)-1H-indazol-3-yl)-1H-imidazol-4-yl)methyl)-4-hydroxypiperidine-1-carboxamide], for which the IC50 against TYK2 is 1 nM; against JAK1 it was 0.1 nM; on JAK3, 0.43 nM; at JAK2, 0.53 nM.

As to `CCc1cc(O)c(F)cc1-c1ccc2c(-c3nc(CN(C)C(=O)N4CC[C@@H](O)C4)c[nH]3)n[nH]c2c1` [Ex-21, (R)—N-((2-(6-(2-ethyl-5-fluoro-4-hydroxyphenyl)-1H-indazol-3-yl)-1H-imidazol-4-yl)methyl)-3-hydroxy-N-methylpyrrolidine-1-carboxamide], the IC50 on TYK2 was 6.9 nM; against JAK1, 0.21 nM; at JAK3, 0.64 nM; at JAK2 it was 0.72 nM.

Consider `CCc1cc(O)c(F)cc1-c1ccc2c(-c3nc(CNC(=O)N4CC[C@@H](O)C4)c[nH]3)n[nH]c2c1` [Ex-22, (R)—N-((2-(6-(2-ethyl-5-fluoro-4-hydroxyphenyl)-1H-indazol-3-yl)-1H-imidazol-4-yl)methyl)-3-hydroxypyrrolidine-1-carboxamide], for which the IC50 was 1.1 nM on TYK2, 0.14 nM at JAK1, 0.48 nM at JAK3 and 0.68 nM against JAK2.

With `CCc1cc(O)c(F)cc1-c1ccc2c(-c3nc(CNC(=O)N4CC[C@H](O)C4)c[nH]3)n[nH]c2c1` [Ex-23, (S)—N-((2-(6-(2-ethyl-5-fluoro-4-hydroxyphenyl)-1H-indazol-3-yl)-1H-imidazol-4-yl)methyl)-3-hydroxypyrrolidine-1-carboxamide], the IC50 against TYK2 was determined as 0.96 nM; against JAK1, 0.15 nM; against JAK3, 0.49 nM; against JAK2, 0.68 nM.

On to `CCc1cc(O)c(F)cc1-c1ccc2c(-c3nc(CN(C)CCO)c[nH]3)n[nH]c2c1` [Ex-24, 5-ethyl-2-fluoro-4-(3-(4-(((2-hydroxyethyl)(methyl)amino)methyl)-1H-imidazol-2-yl)-1H-indazol-6-yl)phenol], for which the IC50 stood at 23 nM against TYK2, 0.37 nM against JAK1, 3.3 nM against JAK3 and 1.3 nM on JAK2.

`CCc1cc(O)c(F)cc1-c1ccc2c(-c3nc(CNS(=O)(=O)C(C)C)c[nH]3)n[nH]c2c1` [Ex-25, N-((2-(6-(2-ethyl-5-fluoro-4-hydroxyphenyl)-1H-indazol-3-yl)-1H-imidazol-4-yl)methyl)propane-2-sulfonamide]: the IC50 against TYK2 was determined as 7 nM; on JAK1, 0.4 nM; against JAK3, 2.5 nM; at JAK2, 2.8 nM.

Regarding `CCc1cc(O)c(F)cc1-c1ccc2c(-c3nc(CNC(=O)OC)c[nH]3)n[nH]c2c1` [Ex-26, methyl ((2-(6-(2-ethyl-5-fluoro-4-hydroxyphenyl)-1H-indazol-3-yl)-1H-imidazol-4-yl)methyl)carbamate], the IC50 is 1.7 nM against TYK2, 0.43 nM at JAK1, 0.57 nM against JAK3 and 0.43 nM against JAK2.

In the case of `CCc1cc(O)c(F)cc1-c1ccc2c(-c3nc(CNC(=O)OCCC#N)c[nH]3)n[nH]c2c1` [Ex-27, 2-cyanoethyl ((2-(6-(2-ethyl-5-fluoro-4-hydroxyphenyl)-1H-indazol-3-yl)-1H-imidazol-4-yl)methyl) carbamate], the IC50 was determined as 9.2 nM against TYK2, 0.92 nM against JAK1, 4.4 nM against JAK3 and 6.3 nM against JAK2.

`CCc1cc(O)c(F)cc1-c1ccc2c(-c3nc(CNC(=O)C4CCC4)c[nH]3)n[nH]c2c1` [Ex-28, N-((2-(6-(2-ethyl-5-fluoro-4-hydroxyphenyl)-1H-indazol-3-yl)-1H-imidazol-4-yl)methyl)cyclobutanecarboxamide]: the IC50 against TYK2 was found to be 1.6 nM; on JAK1, 0.14 nM; against JAK3, 1 nM; on JAK2, 0.86 nM.
